Consider three substances from patent publication US20140142023A1, “Pharmaceutical Composition for Treating A Metabolic Syndrome” (SANOFI, priority 2011, published 2014).

Ends that are not written are not given here.

In test [1] the test system is db/db mice. As to the kind of experiment: Oral glucose tolerance test (OGTT) in db/db mice after 21 days. In kind it is in vivo. The following applies: after 21 days of treatment, 2 g/kg oral glucose, vs vehicle treated obese control. The method, then:
(§1) Female db/db mice (BKS.Cg-m+/+Leprdb/J, age of 6 weeks) were treated with vehicle (PBS), 0.05 mg·kg^−1·day^−1 AVE0010, 0.75 mg·kg^−1·day^−1 recombinant human FGF-21 (SEQ ID NO: 2) or a combined dose of FGF-21 (SEQ ID NO: 2) and AVE0010 (0.75+0.05 mg·kg^−1·day^−1) subcutaneously once daily. Mice were fed ad libitum. Before the first treatment, after one week and 4 weeks blood glucose and HbA1c were measured under fed conditions. After 21 days of treatment an oral glucose tolerance test (OGTT) was initiated. Fasted mice were orally challenged with 2 g·kg^−1 glucose solution and blood glucose was measured at indicated time points.

Test [2] has as its system db/db mice. The test is described as follows: Fed blood glucose in db/db mice (age of 6 weeks). In kind it is in vivo. As to conditions: fed conditions, up to 4 weeks, AVE0010 0.05, FGF-21 0.75 mg/kg/day s.c. or combined. The method, then:
as §1

In a further test the test system is Type 2 diabetic patients. As to conditions: doses elevating plasma concentrations to approximately 3-4 fold physiological postprandial levels (Nauck 1997); cited from earlier work.

In the case of “AVE0010: GLP-1R agonist, SEQ ID NO: 9; sequence identical to lixisenatide SEQ ID NO: 8 [reference compound]”, the “glucose tolerance (OGTT)” value in the test on db/db mice [1] was “small improvement”. Further, in the test on db/db mice [2], the blood glucose result was “inhibition of blood glucose increase”. For the substance “GLP-1(7-27): bioactive GLP-1; probably GLP-1(7-37), SEQ ID NO: 3 (HAEGTFTSDVSSYLEGQAAKEFIAWLVKGRG; Fragment of human GLP-1 (7 to 37))”, in the test with Type 2 diabetic patients, the fasting hyperglycaemia result is reported as “fully normalizes”. As for “GLP-1(7-36 amide): bioactive GLP-1, SEQ ID NO: 4 (HAEGTFTSDVSSYLEGQAAKEFIAWLVKGR-NH2)”, in the test with Type 2 diabetic patients, the fasting hyperglycaemia entry is on record as “fully normalizes”.
